Experimental data as given in PubChem BioAssay AID1963979 (Molecular Pharmacology Branch, DTP, NCI, 2024).

System: 361931-004-R-J1-PDC multicell spheroid viability
Assay: Anticancer human tumor 361931-004-R-J1-PDC patient-derived colon adenocarcinoma cell line growth inhibition [PI3K]
Conditions: for IC50: curve of first compound; for viability, T/C: stronger effect = lower value
Summary of the method: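 We assembled tumor spheroids that included a stromal compartment of HUVEC and MSCs, then exposed them to targeted agents alone and together with PI3K pathway inhibitors. Concentration series descended by half-log from clinically achievable Cmax levels. Viability served as the endpoint.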

[1] = second compound 0.0316 µM, first compound 0.00316 µM
[2] = second compound 0.0316 µM, first compound 0.01 µM
[3] = second compound 0.0316 µM, first compound 0.0316 µM
[4] = second compound 0.0316 µM, first compound 0.1 µM
[5] = second compound 0.0316 µM, first compound 0.316 µM
[6] = second compound 0.0316 µM, first compound 1 µM
[7] = second compound 0.1 µM, first compound 0.00316 µM
[8] = second compound 0.1 µM, first compound 0.01 µM
[9] = second compound 0.1 µM, first compound 0.0316 µM
[10] = second compound 0.1 µM, first compound 0.1 µM
[11] = second compound 0.1 µM, first compound 0.316 µM
[12] = second compound 0.1 µM, first compound 1 µM
[13] = second compound 0.316 µM, first compound 0.00316 µM
[14] = second compound 0.316 µM, first compound 0.01 µM
[15] = second compound 0.316 µM, first compound 0.0316 µM
[16] = second compound 0.316 µM, first compound 0.1 µM
[17] = second compound 0.316 µM, first compound 0.316 µM
[18] = second compound 0.316 µM, first compound 1 µM
[19] = second compound 1 µM, first compound 0.00316 µM
[20] = second compound 1 µM, first compound 0.01 µM
[21] = second compound 1 µM, first compound 0.0316 µM
[22] = second compound 1 µM, first compound 0.1 µM
[23] = second compound 1 µM, first compound 0.316 µM
[24] = second compound 1 µM, first compound 1 µM
[25] = second compound 3.16 µM, first compound 0.00316 µM
[26] = second compound 3.16 µM, first compound 0.01 µM
[27] = second compound 3.16 µM, first compound 0.0316 µM
[28] = second compound 3.16 µM, first compound 0.1 µM
[29] = second compound 3.16 µM, first compound 0.316 µM
[30] = second compound 3.16 µM, first compound 1 µM
[31] = second compound 10 µM, first compound 0.00316 µM
[32] = second compound 10 µM, first compound 0.01 µM
[33] = second compound 10 µM, first compound 0.0316 µM
[34] = second compound 10 µM, first compound 0.1 µM
[35] = second compound 10 µM, first compound 0.316 µM
[36] = second compound 10 µM, first compound 1 µM
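Also: spheroids exposed to agents for seven days before readout.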

`CCN1CCN(Cc2ccc(Nc3ncc(F)c(-c4cc(F)c5nc(C)n(C(C)C)c5c4)n3)nc2)CC1` + Cc1nc(NC(=O)N2CCCC2C(N)=O)sc1-c1ccnc(C(C)(C)C(F)(F)F)c1 was tested, and the IC50 (second compound 0.0316 µM) was over 1000 nM, the IC50 (second compound 0.1 µM) was over 1000 nM and the IC50 (second compound 0.316 µM) was over 1000 nM. For the same molecule, the IC50 (second compound 1 µM) was 605 nM, the IC50 (second compound 3.16 µM) was 111 nM and the IC50 (second compound 10 µM) was 18.9 nM. The viability, T/C [1] was 91.8%, the viability, T/C [2] was 99.3% and the viability, T/C [3] was 99.5%. For the same molecule, the viability, T/C [4] was 93.8%, the viability, T/C [5] was 79.7% and the viability, T/C [6] was 82.1%. It also gave a viability, T/C [7] of 99.6%, a viability, T/C [8] of 97.2% and a viability, T/C [9] of 96.6%. For the same molecule, the viability, T/C [10] was 82.6%, the viability, T/C [11] was 81.7% and the viability, T/C [12] was 57.4%. It also gave a viability, T/C [13] of 97.9%, a viability, T/C [14] of 90.2% and a viability, T/C [15] of 83.8%. It also gave a viability, T/C [16] of 72.6%, a viability, T/C [17] of 69.5% and a viability, T/C [18] of 56.4%. The viability, T/C [19] was 95.2%, the viability, T/C [20] was 87.7% and the viability, T/C [21] was 75.2%. It also gave a viability, T/C [22] of 74.3%, a viability, T/C [23] of 65.2% and a viability, T/C [24] of 39.7%. For the same molecule, the viability, T/C [25] was 75.4%, the viability, T/C [26] was 67.2% and the viability, T/C [27] was 54.9%. The viability, T/C [28] was 51.9%, the viability, T/C [29] was 46% and the viability, T/C [30] was 37.3%. For the same molecule, the viability, T/C [31] was 65.9%, the viability, T/C [32] was 59% and the viability, T/C [33] was 40.6%. It also gave a viability, T/C [34] of 40.5%, a viability, T/C [35] of 32.2% and a viability, T/C [36] of 30.5%.
For `CC(C)NCC(C(=O)N1CCN(c2ncnc3c2C(C)CC3O)CC1)c1ccc(Cl)cc1` (stereo not given), the viability, T/C (compound 0.0316 µM) was 97.8% [middle of 4 runs], the viability, T/C (compound 0.1 µM) was 99.3% [middle of 4 runs] and the viability, T/C (compound 0.316 µM) was 94.3% [middle of 4 runs]. For the same molecule, the viability, T/C (compound 3.16 µM) was 48.7% [middle of 4 runs] and the viability, T/C (compound 10 µM) was 31.1% [middle of 4 runs].
In the case of `Cn1ncc(Cl)c1-c1cc(C(=O)NC(CN)Cc2cccc(F)c2)sc1Cl` (stereo not given), the viability, T/C (compound 0.0316 µM) is reported as 94.2% [middle of 4 runs], the viability, T/C (compound 0.1 µM) is reported as 97.2% [middle of 4 runs] and the viability, T/C (compound 3.16 µM) is reported as 46.3% [middle of 4 runs]. For the same molecule, the viability, T/C (compound 10 µM) was 29.7% [middle of 4 runs].
`Cn1ncnc1[C@H]1c2n[nH]c(=O)c3cc(F)cc(c23)N[C@@H]1c1ccc(F)cc1` + CC(Nc1ncnc2nc[nH]c12)c1cc2cccc(Cl)c2c(=O)n1-c1ccccc1 gave an IC50 (second compound 0.0316 µM) of over 100 nM, an IC50 (second compound 0.1 µM) of over 100 nM and an IC50 (second compound 0.316 µM) of over 100 nM. For the same molecule, the IC50 (second compound 1 µM) was over 100 nM, the IC50 (second compound 3.16 µM) was over 100 nM and the IC50 (second compound 10 µM) was over 100 nM. The viability, T/C (second compound 0.0316 µM, first compound 0.000316 µM) was 97.9%, the viability, T/C (second compound 0.0316 µM, first compound 0.001 µM) was 106% and the viability, T/C [1] was 102%. For the same molecule, the viability, T/C [2] was 99.1%, the viability, T/C [3] was 107% and the viability, T/C [4] was 106%. For the same molecule, the viability, T/C (second compound 0.1 µM, first compound 0.000316 µM) was 110%, the viability, T/C (second compound 0.1 µM, first compound 0.001 µM) was 104% and the viability, T/C [7] was 109%. For the same molecule, the viability, T/C [8] was 103%, the viability, T/C [9] was 101% and the viability, T/C [10] was 108%. The viability, T/C (second compound 0.316 µM, first compound 0.000316 µM) was 107%, the viability, T/C (second compound 0.316 µM, first compound 0.001 µM) was 108% and the viability, T/C [13] was 103%. For the same molecule, the viability, T/C [14] was 97%, the viability, T/C [15] was 105% and the viability, T/C [16] was 100%. It also gave a viability, T/C (second compound 1 µM, first compound 0.000316 µM) of 99.5%, a viability, T/C (second compound 1 µM, first compound 0.001 µM) of 99% and a viability, T/C [19] of 102%. It also gave a viability, T/C [20] of 95.2%, a viability, T/C [21] of 97.8% and a viability, T/C [22] of 95.2%. It also gave a viability, T/C (second compound 3.16 µM, first compound 0.000316 µM) of 102%, a viability, T/C (second compound 3.16 µM, first compound 0.001 µM) of 111% and a viability, T/C [25] of 107%. The viability, T/C [26] was 101%, the viability, T/C [27] was 102% and the viability, T/C [28] was 102%. For the same molecule, the viability, T/C (second compound 10 µM, first compound 0.000316 µM) was 102%, the viability, T/C (second compound 10 µM, first compound 0.001 µM) was 113% and the viability, T/C [31] was 102%. For the same molecule, the viability, T/C [32] was 100%, the viability, T/C [33] was 102% and the viability, T/C [34] was 98.5%.
`CCN1CCN(Cc2ccc(Nc3ncc(F)c(-c4cc(F)c5nc(C)n(C(C)C)c5c4)n3)nc2)CC1` + CC(Nc1ncnc2nc[nH]c12)c1cc2cccc(Cl)c2c(=O)n1-c1ccccc1 showed an IC50 (second compound 0.0316 µM) of over 1000 nM, an IC50 (second compound 0.1 µM) of over 1000 nM and an IC50 (second compound 0.316 µM) of over 1000 nM. It also gave an IC50 (second compound 1 µM) of over 1000 nM, an IC50 (second compound 3.16 µM) of over 1000 nM and an IC50 (second compound 10 µM) of over 1000 nM. The viability, T/C [1] was 106%, the viability, T/C [2] was 103% and the viability, T/C [3] was 103%. It also gave a viability, T/C [4] of 98.8%, a viability, T/C [5] of 109% and a viability, T/C [6] of 105%. For the same molecule, the viability, T/C [7] was 105%, the viability, T/C [8] was 105% and the viability, T/C [9] was 103%. It also gave a viability, T/C [10] of 97.6%, a viability, T/C [11] of 109% and a viability, T/C [12] of 100%. It also gave a viability, T/C [13] of 101%, a viability, T/C [14] of 112% and a viability, T/C [15] of 102%. The viability, T/C [16] was 110%, the viability, T/C [17] was 106% and the viability, T/C [18] was 91.9%. It also gave a viability, T/C [19] of 105%, a viability, T/C [20] of 101% and a viability, T/C [21] of 102%. For the same molecule, the viability, T/C [22] was 104%, the viability, T/C [23] was 108% and the viability, T/C [24] was 93%. The viability, T/C [25] was 109%, the viability, T/C [26] was 107% and the viability, T/C [27] was 101%. It also gave a viability, T/C [28] of 104%, a viability, T/C [29] of 100% and a viability, T/C [30] of 81.8%. The viability, T/C [31] was 105%, the viability, T/C [32] was 102% and the viability, T/C [33] was 106%. The viability, T/C [34] was 96.5%, the viability, T/C [35] was 89.5% and the viability, T/C [36] was 69%.
